The supplement of paper PMC11424490

Columns and labels:
SW837 [1] = test: fitted bottom plateau of viability curve, % of DMSO control; higher = less maximal inhibition; extreme values may be limits of the assay
In short: (§1)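 Compounds were dispensed acoustically as dose series, one compound per well, 24 h after seeding cells in 60 µl per well of 384-well plates (800 cells/well for NCI-H2122, 500 cells/well for SW837 and NCI-H358). Plates were incubated 144 h for SW837 and 72 h for the other two lines, then shaken 15 min and read for CellTiter-Glo luminescence on an EnVision reader. Signals were converted to percent of DMSO controls. The relative IC50, averaged over replicates, and the lower plateau come from fitting a four-parameter nonlinear model.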

NCI-H2122 [2] = test: as above
In short: as §1

SW837 [3] = test: relative IC50 of cell viability (CellTiter-Glo); higher = less potent
Protocol: (§2)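 CellTiter-Glo proliferation assay in KRAS G12C mutant NCI-H2122 (72 h), SW837 (144 h) and NCI-H358 cells in 384-well plates. Monotherapy dose response was fitted with a four-parameter curve after normalisation to DMSO controls (% of control, PoC). IC50 is the relative IC50, averaged over replicates. Bottom is the fitted lower plateau in %PoC; Max.Conc. is the top dose tested.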

NCI-H2122 [4] = test: as above
Protocol: as §2

Row | relative IC50 of cell viability (SW837 [3]) [nM] | relative IC50 of cell viability (NCI-H2122 [4]) [nM] | Structure (SMILES) | fitted bottom plateau of viability curve (SW837 [1]) [%] | fitted bottom plateau of viability curve (NCI-H2122 [2]) [%]
1 | 20.9 | 16.4 | Cc1[nH]c2ccccc2c1CCNCc1ccc(/C=C/C(=O)NO)cc1 [Panobinostat] (top concentration tested 99.878 nM) | 0.651 | 11.3
2 | 153 | 58.5 | Cn1c(=O)n(-c2ccc(C(C)(C)C#N)cc2)c2c3cc(-c4cnc5ccccc5c4)ccc3ncc21 [NVP-BEZ235] (top concentration tested 999.9 nM) | 33.2 | 9.96
3 | 1900 | – | CO[C@H]1CC[C@H](n2c([C@@H]3CCCC(=O)N3c3ccc(F)c(F)c3)nc3cc(-c4c(C)noc4C)ccc32)CC1 [CCS1477] (top concentration tested 10000 nM) | 36.9 | 77.8
4 | 2390 | 3030 | Cc1[nH]c(/C=C2\C(=O)Nc3ccc(S(=O)(=O)Cc4c(Cl)cccc4Cl)cc32)c(C)c1C(=O)N1CCC[C@@H]1CN1CCCC1 (top concentration tested 10000 nM) | 1.78 | 0.553
5 | 331 | 149 | CN1CC[C@H](c2c(O)cc(O)c3c(=O)cc(-c4ccccc4Cl)oc23)[C@H](O)C1 [Flavopiridol] (top concentration tested 500.11 nM) | 0 | 3.96
6 | 57 | 7.98 | CN(Cc1cnc2nc(N)nc(N)c2n1)c1ccc(C(=O)N[C@@H](CCC(=O)O)C(=O)O)cc1 [Methotrexate] (top concentration tested 10000 nM) | 31.9 | 37.4
7 | 87.1 | 11.2 | CC(C)c1cc(-c2n[nH]c(=O)n2-c2ccc3c(ccn3C)c2)c(O)cc1O [Ganetespib] (top concentration tested 99.888 nM) | 0 | 8.33
8 | 943 | 75.9 | COc1cc(Nc2ncc3c(n2)-c2ccc(Cl)cc2C(c2c(F)cccc2OC)=NC3)ccc1C(=O)O [MLN8237] (top concentration tested 999.95 nM) | 13.6 | 21.5
9 | 5600 | 2850 | Cc1cn(CCN2CCN(c3ccccc3-c3cc(C#N)cc(C(=O)NCCCN4CCCC4)c3)CC2)c2ccccc12 [LLY-507] (top concentration tested 9999.9 nM) | 0 | 24
10 | 807 | 278 | CNCc1ccc(-c2cc(-c3nc(-c4ccc(S(=O)(=O)C(C)C)cc4)cnc3N)on2)cc1 [VE-822/VX-970] (top concentration tested 9999.9 nM) | 2.47 | 0.375
11 | 12300 | 64800 | CCOC(=O)CCNc1cc(N2CCc3ccccc3CC2)nc(-c2ccccn2)n1 [GSK-J4] (top concentration tested 50000 nM) | 28.7 | 61.7
12 | 15.3 | 9.8 | CC(=O)[C@]1(O)Cc2c(O)c3c(c(O)c2[C@@H](O[C@H]2C[C@H](N)[C@H](O)[C@H](C)O2)C1)C(=O)c1ccccc1C3=O [Idarubicin] (top concentration tested 100.01 nM) | 38.7 | 39.7
13 | – | 2510 | Cc1cn(-c2cc(NC(=O)c3ccc(C)c(Nc4nccc(-c5cccnc5)n4)c3)cc(C(F)(F)F)c2)cn1 [Nilotinib] (top concentration tested 10000 nM) | 68.8 | 14
14 | 2240 | 5990 | COC(=O)c1ccc2c(c1)NC(=O)/C2=C(\Nc1ccc(N(C)C(=O)CN2CCN(C)CC2)cc1)c1ccccc1 [Nintedanib] (top concentration tested 10000 nM) | 8.69 | 50.6
15 | – | 8090 | COc1cc2nccc(Oc3ccc(NC(=O)C4(C(=O)Nc5ccc(F)cc5)CC4)cc3)c2cc1OC [XL-184] (top concentration tested 9999.9 nM) | 55.8 | 35.3
16 | – | 4650 | CCN(CC)CCNC(=O)c1c(C)[nH]c(/C=C2\C(=O)Nc3ccc(F)cc32)c1C [Sunitinib] (top concentration tested 9999.9 nM) | 59.9 | 31.4
17 | – | 6690 | COc1ccccc1-c1cc(Nc2cccc(CS(N)(=O)=O)c2)ncn1 [LDC-067] (top concentration tested 10000 nM) | 87.9 | 47.3
18 | – | 3960 | CCc1cccc(CC)c1NC(=O)c1nn(C)c2c1CCc1cnc(Nc3ccc(C(=O)NC4CCN(C)CC4)cc3OC(F)(F)F)nc1-2 [NMS-P715] (top concentration tested 10000 nM) | 58.9 | 48.7
19 | – | 8950 | O=[N+]([O-])c1ccc(NCCNc2ncc(-c3ncc[nH]3)c(-c3ccc(Cl)cc3Cl)n2)nc1 (top concentration tested 10000 nM) | 91.7 | 43.5

Second part, the compound before the results:

Row | Structure (SMILES) | relative IC50 of cell viability (SW837 [3]) [nM] | relative IC50 of cell viability (NCI-H2122 [4]) [nM] | fitted bottom plateau of viability curve (SW837 [1]) [%] | fitted bottom plateau of viability curve (NCI-H2122 [2]) [%]
20 | N#CN=C(NCCCCCCOc1ccc(Cl)cc1)Nc1ccncc1 [GMX1778] (top concentration tested 9999.9 nM) | 30.6 | 210 | 17.9 | 5.11
21 | CC(=O)O[C@H]1C(=O)[C@@]2(C)[C@H]([C@H](OC(=O)c3ccccc3)[C@]3(O)C[C@H](OC(=O)[C@H](O)[C@@H](NC(=O)c4ccccc4)c4ccccc4)C(C)=C1C3(C)C)[C@]1(OC(C)=O)CO[C@@H]1C[C@@H]2O [Paclitaxel] (top concentration tested 100.01 nM) | 12.5 | 3.22 | 25.6 | 4.65
22 | NC(=O)c1cnc(N[C@@H]2CCCC[C@@H]2N)nc1Nc1cccc(-n2nccn2)c1 (top concentration tested 10000 nM) | 2110 | 3860 | 30.9 | 39.3
23 | C/C=C1\NC(=O)[C@H]2CSSCC/C=C/[C@H](CC(=O)N[C@H](C(C)C)C(=O)N2)OC(=O)[C@H](C(C)C)NC1=O [Romidepsin] (top concentration tested 10000 nM) | 76.4 | 5.65 | 0.0763 | 0.385
24 | O=C(c1ccc(F)c(F)c1Nc1ccc(I)cc1F)N1CC(O)([C@@H]2CCCCN2)C1 [Cobimetinib] (top concentration tested 999.97 nM) | 178 | 139 | 31.2 | 3.48
25 | Nc1ccn([C@@H]2O[C@H](CO)[C@@H](O)C2(F)F)c(=O)n1 [Gemcitabine] (top concentration tested 99.925 nM) | 12.3 | 7.62 | 18 | 28.4
26 | CCc1cnn2c(NCc3ccc[n+]([O-])c3)cc(N3CCCC[C@H]3CCO)nc12 (top concentration tested 1000 nM) | 25.9 | 8.91 | 5.65 | 3.3
27 | O=C(/C=C\n1cnc(-c2cc(C(F)(F)F)cc(C(F)(F)F)c2)n1)NNc1cnccn1 [KPT-330] (top concentration tested 50000 nM) | 7020 | – | 20.6 | 91.8
28 | CCC1=C[C@@H]2CN(C1)Cc1c([nH]c3ccccc13)[C@@](C(=O)OC)(c1cc3c(cc1OC)N(C)[C@H]1[C@@](O)(C(=O)OC)[C@H](OC(C)=O)[C@]4(CC)C=CCN5CC[C@]31[C@@H]54)C2 [Vinorelbine] (top concentration tested 100.01 nM) | 17.1 | 9.06 | 42.9 | 5.21
29 | COc1cc2cc(c1Cl)N(C)C(=O)C[C@H](OC(=O)C(C)C)[C@]1(C)O[C@@H]1[C@H](C)[C@@H]1C[C@@](O)(NC(=O)O1)[C@H](OC)/C=C/C=C(\C)C2 [Ansamitocin P3] (top concentration tested 99.976 nM) | 0.162 | 0.0585 | 26.7 | 3.79
30 | Nc1ccn([C@@H]2O[C@H](CO)[C@@H](O)[C@@H]2O)c(=O)n1 [Cytarabin] (top concentration tested 999.93 nM) | 949 | 238 | 0 | 32.3
31 | O=C(O)C(=O)O.[NH-][C@@H]1CCCC[C@H]1[NH-].[Pt+2] [Oxaliplatin] (top concentration tested 50000 nM) | 5890 | 9200 | 21 | 31.5
32 | CC(=O)O[C@@]12CO[C@@H]1C[C@H](O)[C@@]1(C)C(=O)[C@H](O)C3=C(C)[C@@H](OC(=O)[C@H](O)[C@@H](NC(=O)OC(C)(C)C)c4ccccc4)C[C@@](O)([C@@H](OC(=O)c4ccccc4)[C@H]21)C3(C)C [Docetaxel] (top concentration tested 100.01 nM) | 2.73 | 1.68 | 22.5 | 4.04
33 | Nc1nc(Cl)nc2c1ncn2[C@@H]1O[C@H](CO)[C@@H](O)[C@@H]1F [Clofarabine] (top concentration tested 10000 nM) | 1150 | 322 | 13.4 | 23.7
34 | CC(C)(C)c1ccc(S(=O)(=O)NCc2ccc(C(=O)Nc3cccnc3)cc2)cc1 [STF-31] (top concentration tested 10000 nM) | 6500 | 5790 | 0 | 12.7
35 | CN[C@H]1CN(c2ccc3c(=O)c(C(=O)O)cn(-c4nccs4)c3n2)C[C@@H]1OC [Vosaroxin] (top concentration tested 2500 nM) | 2310 | 778 | 0 | 34.3
36 | CC[C@]1(O)C[C@@H]2CN(CCc3c([nH]c4ccccc34)[C@@](C(=O)OC)(c3cc4c(cc3OC)N(C)[C@H]3[C@@](O)(C(=O)OC)[C@H](OC(C)=O)[C@]5(CC)C=CCN6CC[C@]43[C@@H]65)C2)C1 [Vinblastine] (top concentration tested 99.992 nM) | 80.2 | 4.34 | 0 | 4.54
37 | CO[C@@]12[C@H](COC(N)=O)C3=C(C(=O)C(C)=C(N)C3=O)N1C[C@@H]1N[C@@H]12 [Mitomycin C] (top concentration tested 10000 nM) | 240 | 460 | 0.69 | 2.51
